In data set [1] the test system is shNAMPT-2 U87 xenograft. The data set is described as follows: shNAMPT-2 U87 (NAMPT-knockdown) xenograft model. In kind it is in vivo, nude mice (BALB/c-nude). The procedure: (§1) Six-week-old female athymic nude mice (BALB/c-nude) were obtained from GemPharmatech (Beijing, China). U87 cells (3 × 10^6 cells per animal) were injected into the rear right armpit of nude mice to generate xenograft tumors. Seven to ten days after injection, the tumors were visible to the naked eye (approximately 100 mm^3), and the mice were randomized into five groups (12 mice per group). The PF403 treatment groups were administered different doses of PF403 once daily via intragastric gavage (low dose, 3 mg/kg; median dose, 6 mg/kg; high dose, 12 mg/kg). The positive control drug used was temozolomide (50 mg/kg, i.g., Days 1–5), the first line of glioma treatment, while the control group was treated with 0.5% CMC-Na solution as a control. To validate the NAMPT knockdown group, we established the following groups: a control group (vehicle control, i.g., once daily, n = 12), a shNAMPT-2 knockdown group (vehicle control, i.g., once daily, n = 12), and a shNAMPT-2 knockdown group treated with CAT3 (6 mg/kg, i.g., once daily, n = 12). The body weights of the nude mice were recorded every two days, and the tumor weights were recorded on the 14th day after the mice were sacrificed.
(§2) IHC was performed following standard protocols. Briefly, the standard protocol for Ki67 immunohistochemical staining involved tissue preparation, deparaffinization and rehydration, antigen retrieval, blocking, primary and secondary antibody incubations, visualization with DAB, counterstaining, mounting, microscopic examination, and image acquisition. To assess proliferation rates in tissue samples, the area of Ki67 expression was used for comparison in each group.

Data set [2] concerns shNAMPT-2 U87 orthotopic glioma. The data set is described as follows: Orthotopic glioma model with shNAMPT-2 U87 cells, MRI. In kind it is in vivo, nude mice (BALB/c-nude). The procedure:
For the orthotopic glioma model, six-week-old female athymic nude mice (BALB/c-nude) were obtained from GemPharmatech (Beijing, China). Anesthetize nude mice with tribromoethanol at a concentration of 20 mg/mL and a dosage of 0.2 mL/10 g body weight. U87 cells (shNAMPT-2, 5 × 10^5 cells) suspended in 5 μL PBS buffer were injected intracranially into nude mice using stereotaxic restraint. The location was bregma +1.0 mm, right lateral 2.0 mm, profundity 3.5 mm, and return to 3.0 mm. After 3 days, 6 mg/kg of CAT3 was orally administered once daily for 11 days. Intracranial tumors were viewed using MRI. The body weights of mice were monitored once every 2 or 3 days. The feeding and handling of animals have been approved by the Animal Care & Welfare Committee Institute of Materia Medica, CAMS & PUMC (Approval numbers: 00008485, 00008487, 00008963).
After 11 days of treatment, anatomical images of the intracranial tumor were acquired using an MRI scanner (PharmaScan 70/16 US, Bruker, Switzerland) on the nude mice. The parameters used in the scans to optimize gray/white matter contrast were as follows: a T2_TurboRARE, with TR/TE = 2795/35, 4 averages, 22 × 22 field-of-view, and 0.5 mm slice thickness. The scanning of all brains was completed in 25 sessions. The tumor volume was calculated using the sum of the areas in all images multiplied by the thickness of each slice (0.5 mm).

Data set [3] has as its system U87 xenograft. The data set is described as follows: U87 xenograft model in nude mice. In kind it is in vivo, nude mice (BALB/c-nude). The settings on record: for inhibitory effect in terms of tumor weight / inhibitory effect based on tumor volume: i.g.; for inhibitory effect in terms of tumor weight: 14th day; for inhibitory effect based on tumor volume: daily for 14 days. The procedure: as §1, §2

For data set [4], the system named is U87 orthotopic glioma. Set-up: method as in PMID 27495899. Particulars: 6 mg/kg, 11 days of continuous treatment; cited from earlier work.
Data set [5] deals with NAD^+ in U87 cells. The data set is described as follows: Measurement of NAD+ levels in U87 cells. In kind it is cell-based, human. Particulars: 10 nmol/L, compared with PF403. The text has this:
NAD^+ is a coenzyme found in all cells and consists of both NAD^+ (oxidized) and NADH (reduced) forms. NAD^+ can be used to transfer electrons during redox reactions and as a substrate used by many enzymes to participate in intracellular reactions. We used an NAD^+/NADH assay kit (Beyotime, S0175, Shanghai, China) based on the WST-8 method to determine the NAD^+/NADH content. Cells in 6-well plates were collected and lysed with NAD^+/NADH extract on ice, and the supernatant was used as the sample to be tested. A control solution with a gradient concentration of NADH was prepared with a 10 mmol/L NADH standard. The supernatant from the sample was first aspirated and used to determine the total amount of NAD^+ and NADH. Subsequently, the sample was heated at 60 °C for 30 min to remove the NAD^+, after which the supernatant was collected to determine the NADH concentration. Ethanol dehydrogenase was added to each well, and the plate was incubated at 37 °C in the dark for 10 min. Then, 10 μL of chromogenic solution was added, and the plate was incubated for 30 min. Afterward, the absorbance at 450 nm was measured, and the content was calculated by comparison with the standard curve. The content of NAD^+ was calculated by subtracting the content of NADH from the total amount.

For data set [6], the system named is U87 cells. The data set is described as follows: CCK-8 cell proliferation assay, U87. The class given is cell-based. Particulars: Homo sapiens, U-87 MG, 72 h, CCK-8, 72 h; read-out: IC50, U87 proliferation inhibition. The procedure:
The effects on cell proliferation were measured using a CCK-8 assay kit. A total of 3 × 10^3 cells were seeded per well in 96-well plates and incubated for 24, 48, or 72 h after drug administration. After 10 μL of CCK-8 solution was added to each well and incubated at 37 °C for 1–2 h, the absorbance at OD450 was read with an enzyme marker. The data were recorded and analyzed by GraphPad Prism software (version 8.0.2). For the cell growth assay, 2 × 10^3 cells were seeded per well in 96-well plates (n = 5). Ten microlitres of CCK-8 reagent was added at a fixed time every day, and the OD450 was read after 2 h. The statistical data were analyzed, and cell growth curves were plotted after a continuous period of 7 days.
On the technique in general: Tetrazolium assays rely on reduction of a dye to a coloured formazan, in cell work by metabolically active cells.

For data set [7] the following is noted: cited from earlier work.

As to “(13aS)-3-pivaloyloxyl-6,7-dimethoxyphenanthro[9,10-b] indolizidine [CAT3]”, the “inhibitory effect on cell proliferation by tumor volume or weight” value in data set [1] (6 mg/kg, i.g., daily for 14 days) is “no significant inhibitory effect”. Besides, the “expression of Ki67 in tumor (IHC)” value in data set [1] (effective dose (6 mg/kg), NAMPT-knockdown xenograft) is “not affected”; in data set [3] (after treatment, U87 xenograft), “reduced”. For the same compound, the body weight result in data set [1] (over 14 days, gastrointestinal side effects) is reported as “slight decrease in body weight”. Besides, the “body weight of nude mice” value in data set [2] (early and middle stages of treatment) is reported as “slight decrease in the body weight”. In data set [2] (treatment group, 6 mg/kg orally once daily for 11 days, n = 12), the “NAMPT knockdown tumor volume (MRI)” value is 24.05 ± 13.99 mm^3. In addition, the “inhibitory effect in terms of tumor weight” value is 55.37% in data set [3] (6 mg/kg) and 63.18% in data set [3] (12 mg/kg). Besides, the “inhibitory effect based on tumor volume” value in data set [3] (6 mg/kg) was ~58.41%; in data set [3] (12 mg/kg), ~67.59%. Moreover, in data set [3] (due to gastrointestinal reaction), the “body weight of the nude mice” value is “decreased slightly in the first week and then gradually recovered”. In addition, the “inhibitory effect, orthotopic glioma model” value in data set [4] is on record as ~40%.

Regarding `O=C(/C=C/c1cccnc1)NCCCCC1CCN(C(=O)c2ccccc2)CC1` [FK866, (E)-Daporinad], the “inhibitory effect on intracellular NAD^+ content” value in data set [5] is on record as “better inhibitory effect on intracellular NAD^+ content than PF403”.

On to `COc1ccc2c3c(c4cc(OC)c(OC)cc4c2c1)CN1CCC[C@H]1C3` [CAT, (+)-Deoxytylophorinine], for which the IC50 in data set [6] is 23.4 nM. The “blood–brain barrier penetration” value in data set [7] was “effectively cross the blood–brain barrier”.

The values are drawn from article PMC12138128 (Acta Pharmaceutica Sinica. B, 2025).
